Where two headings read alike, the source gives them in different places.
Columns and labels:
Assay in all cases: cell-based
hNav1.4 [1] = target: T1, hNav1.4 (Homo sapiens, UniProt P35499); assay type: cell-based; conditions: for IC50: IonWorks Quattro, read-out: IC50 (μM) Nav1.4; for Nav1.4/Nav1.7: ratio of IonWorks Quattro IC50 values
hNav1.7 [2] = target: T2, hNav1.7 (Homo sapiens, UniProt Q15858); assay type: cell-based; conditions: for Nav1.4/Nav1.7 / Nav1.5/Nav1.7: ratio of PX tonic IC50 values, Table 11
hNav1.5 = hNav1.5 (Homo sapiens, UniProt Q14524); conditions: IonWorks Quattro, read-out: IC50 (μM) Nav1.5
hNav1.7 [3] = target: T2, hNav1.7; conditions: for IC50: read-out: IC50 (μM) Nav1.7
hNav1.3 = hNav1.3 (Homo sapiens, UniProt Q9NY46); conditions: IonWorks Quattro, read-out: IC50 (μM) Nav1.3
hNav1.3, sequence (Q9NY46 whole entry): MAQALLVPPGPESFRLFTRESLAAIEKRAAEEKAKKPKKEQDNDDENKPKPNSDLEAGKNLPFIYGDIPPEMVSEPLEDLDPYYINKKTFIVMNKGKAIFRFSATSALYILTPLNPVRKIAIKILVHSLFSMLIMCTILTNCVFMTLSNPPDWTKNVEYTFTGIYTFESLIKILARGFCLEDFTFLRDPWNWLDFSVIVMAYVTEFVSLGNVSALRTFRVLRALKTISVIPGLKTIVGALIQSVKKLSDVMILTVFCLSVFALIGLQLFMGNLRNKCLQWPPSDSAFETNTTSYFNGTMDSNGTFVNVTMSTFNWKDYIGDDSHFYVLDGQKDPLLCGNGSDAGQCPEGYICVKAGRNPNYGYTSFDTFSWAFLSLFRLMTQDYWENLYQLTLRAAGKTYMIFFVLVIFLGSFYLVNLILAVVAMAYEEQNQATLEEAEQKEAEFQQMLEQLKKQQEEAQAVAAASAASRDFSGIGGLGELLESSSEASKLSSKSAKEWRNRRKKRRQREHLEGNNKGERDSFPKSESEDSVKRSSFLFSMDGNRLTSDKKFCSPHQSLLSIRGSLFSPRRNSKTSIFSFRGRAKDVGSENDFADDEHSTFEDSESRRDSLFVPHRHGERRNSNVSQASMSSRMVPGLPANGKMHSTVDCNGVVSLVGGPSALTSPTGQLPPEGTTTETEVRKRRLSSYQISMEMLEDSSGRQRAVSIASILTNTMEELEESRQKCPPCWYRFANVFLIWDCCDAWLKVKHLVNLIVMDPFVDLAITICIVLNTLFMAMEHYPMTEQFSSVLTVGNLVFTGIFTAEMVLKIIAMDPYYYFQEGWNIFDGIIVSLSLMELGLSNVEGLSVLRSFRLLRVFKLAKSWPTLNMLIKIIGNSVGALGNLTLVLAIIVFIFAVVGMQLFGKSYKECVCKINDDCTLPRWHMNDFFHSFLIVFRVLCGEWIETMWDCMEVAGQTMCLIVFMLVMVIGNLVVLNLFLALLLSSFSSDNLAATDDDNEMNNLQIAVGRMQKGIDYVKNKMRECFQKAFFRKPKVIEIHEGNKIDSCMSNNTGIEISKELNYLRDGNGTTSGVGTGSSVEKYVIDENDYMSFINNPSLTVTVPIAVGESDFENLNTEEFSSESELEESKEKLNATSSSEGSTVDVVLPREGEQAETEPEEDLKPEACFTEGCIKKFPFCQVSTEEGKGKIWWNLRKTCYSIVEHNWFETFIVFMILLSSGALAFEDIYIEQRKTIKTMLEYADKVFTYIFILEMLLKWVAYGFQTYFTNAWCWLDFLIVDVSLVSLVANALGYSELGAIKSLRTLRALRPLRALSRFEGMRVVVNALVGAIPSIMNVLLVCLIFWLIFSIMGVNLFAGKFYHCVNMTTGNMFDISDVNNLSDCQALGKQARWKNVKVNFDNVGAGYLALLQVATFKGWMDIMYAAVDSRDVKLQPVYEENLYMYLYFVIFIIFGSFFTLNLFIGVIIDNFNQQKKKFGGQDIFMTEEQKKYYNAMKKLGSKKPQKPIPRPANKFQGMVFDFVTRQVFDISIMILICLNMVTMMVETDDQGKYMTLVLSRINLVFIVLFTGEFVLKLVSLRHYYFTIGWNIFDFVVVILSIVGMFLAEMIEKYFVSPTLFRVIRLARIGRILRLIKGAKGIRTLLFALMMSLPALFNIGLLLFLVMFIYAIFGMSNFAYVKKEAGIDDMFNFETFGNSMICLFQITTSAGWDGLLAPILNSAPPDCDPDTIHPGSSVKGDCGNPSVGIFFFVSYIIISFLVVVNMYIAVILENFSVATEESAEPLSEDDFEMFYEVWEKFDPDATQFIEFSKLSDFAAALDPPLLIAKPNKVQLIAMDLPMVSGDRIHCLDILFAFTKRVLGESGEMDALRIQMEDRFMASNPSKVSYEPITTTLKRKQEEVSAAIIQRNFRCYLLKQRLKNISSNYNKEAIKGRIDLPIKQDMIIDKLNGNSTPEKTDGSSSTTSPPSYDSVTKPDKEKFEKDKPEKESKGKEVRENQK

hNav1.6 = hNav1.6 (Homo sapiens, UniProt Q9UQD0); assay type: cell-based; conditions: Table 15; read-out: PX hNav1.6 Tonic IC50
hNav1.4 [4] = target: T1, hNav1.4; assay type: cell-based; conditions: PX

T1 sequence (P35499 whole entry): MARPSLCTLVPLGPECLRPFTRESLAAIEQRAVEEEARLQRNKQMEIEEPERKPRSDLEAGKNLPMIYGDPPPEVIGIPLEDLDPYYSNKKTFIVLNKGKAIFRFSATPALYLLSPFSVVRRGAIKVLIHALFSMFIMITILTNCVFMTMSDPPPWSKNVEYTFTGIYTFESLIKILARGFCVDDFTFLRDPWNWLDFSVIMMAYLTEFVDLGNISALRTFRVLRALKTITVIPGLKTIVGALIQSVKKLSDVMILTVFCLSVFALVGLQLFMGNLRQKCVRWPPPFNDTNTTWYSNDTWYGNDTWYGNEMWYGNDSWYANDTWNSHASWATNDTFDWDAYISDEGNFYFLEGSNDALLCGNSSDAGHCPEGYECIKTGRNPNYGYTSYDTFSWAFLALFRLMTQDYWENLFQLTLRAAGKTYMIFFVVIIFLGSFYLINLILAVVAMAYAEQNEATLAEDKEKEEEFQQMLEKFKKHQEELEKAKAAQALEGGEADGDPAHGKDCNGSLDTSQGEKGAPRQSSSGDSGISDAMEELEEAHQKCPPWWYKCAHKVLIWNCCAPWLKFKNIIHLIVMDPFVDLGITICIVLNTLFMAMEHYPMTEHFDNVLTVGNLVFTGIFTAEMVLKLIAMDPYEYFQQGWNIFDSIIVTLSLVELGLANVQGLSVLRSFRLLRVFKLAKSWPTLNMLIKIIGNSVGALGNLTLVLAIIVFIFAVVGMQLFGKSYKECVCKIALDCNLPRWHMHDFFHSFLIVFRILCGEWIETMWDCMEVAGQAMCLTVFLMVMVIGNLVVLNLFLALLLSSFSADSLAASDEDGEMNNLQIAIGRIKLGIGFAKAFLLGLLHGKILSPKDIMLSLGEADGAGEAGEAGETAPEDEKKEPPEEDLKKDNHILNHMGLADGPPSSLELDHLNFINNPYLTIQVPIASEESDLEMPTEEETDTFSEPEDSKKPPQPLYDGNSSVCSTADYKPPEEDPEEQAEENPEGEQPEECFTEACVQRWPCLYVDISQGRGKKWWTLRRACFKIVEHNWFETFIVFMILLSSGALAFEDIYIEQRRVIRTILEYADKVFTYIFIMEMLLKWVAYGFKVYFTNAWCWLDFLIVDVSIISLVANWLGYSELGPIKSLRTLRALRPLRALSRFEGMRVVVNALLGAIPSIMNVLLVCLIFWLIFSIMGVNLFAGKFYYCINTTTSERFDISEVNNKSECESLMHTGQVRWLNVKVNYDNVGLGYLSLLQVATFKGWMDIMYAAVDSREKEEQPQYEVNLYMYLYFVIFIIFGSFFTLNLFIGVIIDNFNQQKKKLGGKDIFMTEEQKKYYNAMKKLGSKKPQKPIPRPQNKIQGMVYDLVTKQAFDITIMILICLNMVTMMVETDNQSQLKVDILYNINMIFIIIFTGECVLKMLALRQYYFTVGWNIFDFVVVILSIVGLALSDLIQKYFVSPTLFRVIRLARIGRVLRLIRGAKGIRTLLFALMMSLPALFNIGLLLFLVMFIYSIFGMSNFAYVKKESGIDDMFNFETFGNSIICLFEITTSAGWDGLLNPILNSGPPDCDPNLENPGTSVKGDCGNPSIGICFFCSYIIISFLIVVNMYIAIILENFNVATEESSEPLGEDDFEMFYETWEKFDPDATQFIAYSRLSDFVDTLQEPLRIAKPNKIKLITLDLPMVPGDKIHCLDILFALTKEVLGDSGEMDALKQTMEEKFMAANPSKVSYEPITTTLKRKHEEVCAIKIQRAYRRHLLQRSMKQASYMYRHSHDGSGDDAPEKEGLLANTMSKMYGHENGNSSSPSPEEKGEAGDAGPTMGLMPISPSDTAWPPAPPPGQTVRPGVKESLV

SMILES	IC50 (hNav1.4 [1]; Table 6) [µM]	Nav1.4/Nav1.7 (hNav1.4 [1]; Table 6)	Nav1.4/Nav1.7 (hNav1.7 [2])	Nav1.5/Nav1.7 (hNav1.7 [2])	IC50 (hNav1.5; Table 6) [µM]	IC50 (hNav1.7 [3]) [µM]	IC50 (hNav1.3; Table 6) [µM]	IC50 (hNav1.6) [µM]	selectivity against hNav1.4 relative to hNav1.7 (hNav1.4 [4])	Nav1.4/Nav1.7 (hNav1.7 [3]; ratio of IonWorks Quattro IC50 values, Nav1.4 over Nav1.7)	IC50 (hNav1.4 [1]; Table 9) [µM]	IC50 (hNav1.5; Table 9) [µM]	IC50 (hNav1.7 [3]; IonWorks Quattro, […]) [µM]	IC50 (hNav1.3; Table 9) [µM]	Nav1.4/Nav1.7 (hNav1.4 [1]; Table 9)	IC50 (hNav1.7 [2]; read-out: PX hNav1.7 Tonic IC50) [µM]
CC[C@H](C)[C@H](NC(=O)[C@@H](NC(=O)[C@H](CCCCN)NC(=O)[C@H](CCCNC(=N)N)NC(=O)[C@@H]1CSSC[C@@H]2NC(=O)[C@H](C)NC(=O)[C@H](CCCNC(=N)N)NC(=O)[C@H](CCCCN)NC(=O)[C@H](CO)NC(=O)[C@H](CC(=O)O)NC(=O)[C@@H]3CSSC[C@H](NC(=O)[C@H](C)NC(=O)[C@H](CC(C)C)NC(=O)CNC(=O)[C@H](CCC(=O)O)NC(=O)[C@H](CSSC[C@H](NC(=O)[C@@H](N)Cc4ccc(O)cc4)C(=O)N[C@@H](CCC(N)=O)C(=O)N[C@@H](CCCCN)C(=O)N[C@@H](Cc4c[nH]c5ccccc45)C(=O)N[C@@H](CCSC)C(=O)N[C@@H](Cc4c[nH]c5ccccc45)C(=O)N[C@@H]([C@@H](C)O)C(=O)N3)NC2=O)C(=O)N[C@@H](CCCCN)C(=O)N[C@@H](CC(C)C)C(=O)N[C@@H](Cc2c[nH]c3ccccc23)C(=O)N1)[C@@H](C)CC)C(N)=O [compound 17]	0.42	46	8	229	> 5	0.009	0.26									
CC[C@H](C)[C@H](NC(=O)[C@@H](NC(=O)[C@H](CCCCN)NC(=O)[C@H](CCCNC(=N)N)NC(=O)[C@@H]1CSSC[C@@H]2NC(=O)[C@H](C)NC(=O)[C@H](CCCNC(=N)N)NC(=O)[C@H](CCCCN)NC(=O)[C@H](CO)NC(=O)[C@H](CC(=O)O)NC(=O)[C@@H]3CSSC[C@H](NC(=O)[C@H](CCCNC(=N)N)NC(=O)[C@H](CC(C)C)NC(=O)CNC(=O)[C@H](CCC(=O)O)NC(=O)[C@H](CSSC[C@H](NC(=O)[C@@H](N)Cc4ccc(O)cc4)C(=O)N[C@@H](CCC(N)=O)C(=O)N[C@@H](CCCCN)C(=O)N[C@@H](Cc4c[nH]c5ccccc45)C(=O)N[C@@H](CCSC)C(=O)N[C@@H](Cc4cccc5ccccc45)C(=O)N[C@@H]([C@@H](C)O)C(=O)N3)NC2=O)C(=O)N[C@@H](CCCCN)C(=O)N[C@@H](CC(C)C)C(=O)N[C@@H](Cc2c[nH]c3ccccc23)C(=O)N1)[C@@H](C)CC)C(N)=O [compound 30]	0.12	9	2	3550	3.6	0.013	0.1									
CC[C@H](C)[C@H](NC(=O)[C@@H](NC(=O)[C@H](CCCCN)NC(=O)[C@H](CCCNC(=N)N)NC(=O)[C@@H]1CSSC[C@@H]2NC(=O)[C@H](C)NC(=O)[C@H](CCCNC(=N)N)NC(=O)[C@H](CCCCN)NC(=O)[C@H](CO)NC(=O)[C@H](CC(=O)O)NC(=O)[C@@H]3CSSC[C@H](NC(=O)[C@H](CCCNC(=N)N)NC(=O)[C@H](CC(C)C)NC(=O)CNC(=O)[C@H](CCC(=O)O)NC(=O)[C@H](CSSC[C@H](NC(=O)[C@@H](N)CCC(=O)O)C(=O)N[C@@H](CCC(N)=O)C(=O)N[C@@H](CCCCN)C(=O)N[C@@H](Cc4c[nH]c5ccccc45)C(=O)N[C@@H](CCSC)C(=O)N[C@@H](Cc4c[nH]c5ccccc45)C(=O)N[C@@H]([C@@H](C)O)C(=O)N3)NC2=O)C(=O)N[C@@H](CCCCN)C(=O)N[C@@H](CC(C)C)C(=O)N[C@@H](Cc2c[nH]c3ccccc23)C(=O)N1)[C@@H](C)CC)C(N)=O [compound 49]	0.23	13	27	21467	> 5	0.018	0.16									
CC[C@H](C)[C@H](NC(=O)[C@@H](NC(=O)[C@H](CCCCN)NC(=O)[C@H](CCCNC(=N)N)NC(=O)[C@@H]1CSSC[C@@H]2NC(=O)[C@H](C)NC(=O)[C@H](CCCNC(=N)N)NC(=O)[C@H](CCCCN)NC(=O)[C@H](CO)NC(=O)[C@H](CC(=O)O)NC(=O)[C@@H]3CSSC[C@H](NC(=O)[C@H](CCCNC(=N)N)NC(=O)[C@H](CC(C)C)NC(=O)CNC(=O)[C@H](CCC(=O)O)NC(=O)[C@H](CSSC[C@H](NC(=O)[C@@H](N)Cc4ccc(O)cc4)C(=O)N[C@@H](CCC(N)=O)C(=O)N[C@@H](CCCCN)C(=O)N[C@@H](Cc4c[nH]c5ccccc45)C(=O)N[C@@H](CCSC)C(=O)N[C@@H](CCC(=O)O)C(=O)N[C@@H]([C@@H](C)O)C(=O)N3)NC2=O)C(=O)N[C@@H](CCCCN)C(=O)N[C@@H](CC(C)C)C(=O)N[C@@H](Cc2c[nH]c3ccccc23)C(=O)N1)[C@@H](C)CC)C(N)=O [compound 54]	2.6	5			> 5	0.56	2.8	> 10								
CC[C@H](C)[C@H](NC(=O)[C@@H](NC(=O)[C@H](CCCCN)NC(=O)[C@H](CCCNC(=N)N)NC(=O)[C@@H]1CSSC[C@@H]2NC(=O)[C@H](C)NC(=O)[C@H](CCCNC(=N)N)NC(=O)[C@H](CCCCN)NC(=O)[C@H](CO)NC(=O)[C@H](CC(=O)O)NC(=O)[C@@H]3CSSC[C@H](NC(=O)[C@H](CCC(=O)O)NC(=O)[C@H](CC(C)C)NC(=O)CNC(=O)[C@H](CCC(=O)O)NC(=O)[C@H](CSSC[C@H](NC(=O)[C@@H](N)Cc4ccc(O)cc4)C(=O)N[C@@H](CCC(N)=O)C(=O)N[C@@H](CCCCN)C(=O)N[C@@H](Cc4c[nH]c5ccccc45)C(=O)N[C@@H](CCSC)C(=O)N[C@@H](Cc4c[nH]c5ccccc45)C(=O)N[C@@H]([C@@H](C)O)C(=O)N3)NC2=O)C(=O)N[C@@H](CCCCN)C(=O)N[C@@H](CC(C)C)C(=O)N[C@@H](Cc2c[nH]c3ccccc23)C(=O)N1)[C@@H](C)CC)C(N)=O [compound 63]	4.6	63	179	1333	> 5	0.073	2.5		greater than 1000 fold	14						
CCCC[C@@H]1NC(=O)[C@H](Cc2c[nH]c3ccccc23)NC(=O)[C@H](CCCCN)NC(=O)[C@H](CCC(N)=O)NC(=O)[C@@H](NC(=O)[C@@H](N)Cc2ccc(O)cc2)CSSC[C@@H]2NC(=O)[C@@H]3CSSC[C@@H](C(=O)N[C@@H](CCCNC(=N)N)C(=O)N[C@@H](CCCCN)C(=O)N[C@H](C(=O)N[C@H](C(N)=O)[C@@H](C)CC)[C@@H](C)CC)NC(=O)[C@H](Cc4c[nH]c5ccccc45)NC(=O)[C@H](CC(C)C)NC(=O)[C@H](Cc4cn(CCCOCCOCCOCCOCCOCCOCCOCCOCCOCCOCCN)nn4)NC(=O)[C@H](CSSC[C@H](NC(=O)[C@H]([C@@H](C)O)NC(=O)[C@H](Cc4c[nH]c5ccccc45)NC1=O)C(=O)N[C@@H](CC(=O)O)C(=O)N[C@@H](CO)C(=O)N[C@@H](CCCCN)C(=O)N[C@@H](CCCNC(=N)N)C(=O)N[C@@H](C)C(=O)N3)NC(=O)[C@H](CCCNC(=N)N)NC(=O)[C@H](CC(C)C)NC(=O)CNC(=O)[C@H](CCC(=O)O)NC2=O [compound 264]											> 7	> 7	> 7	> 7		
CCCC[C@@H]1NC(=O)[C@H](Cc2c[nH]c3ccccc23)NC(=O)[C@H](CCCCN)NC(=O)[C@H](CCC(N)=O)NC(=O)[C@@H](NC(=O)[C@@H](N)Cc2ccc(O)cc2)CSSC[C@@H]2NC(=O)[C@@H]3CSSC[C@@H](C(=O)N[C@@H](CCCNC(=N)N)C(=O)N[C@@H](CCCCN)C(=O)N[C@H](C(=O)N[C@H](C(N)=O)[C@@H](C)CC)[C@@H](C)CC)NC(=O)[C@H](Cc4c[nH]c5ccccc45)NC(=O)[C@H](Cc4cn(CCCOCCOCCOCCOCCOCCOCCOCCOCCOCCOCCN)nn4)NC(=O)[C@H](CCCCN)NC(=O)[C@H](CSSC[C@H](NC(=O)[C@H]([C@@H](C)O)NC(=O)[C@H](Cc4c[nH]c5ccccc45)NC1=O)C(=O)N[C@@H](CC(=O)O)C(=O)N[C@@H](CO)C(=O)N[C@@H](CCCCN)C(=O)N[C@@H](CCCNC(=N)N)C(=O)N[C@@H](C)C(=O)N3)NC(=O)[C@H](CCCNC(=N)N)NC(=O)[C@H](CC(C)C)NC(=O)CNC(=O)[C@H](CCC(=O)O)NC2=O [compound 265]											> 7	> 7	4.8	5.6		
CCCC[C@@H]1NC(=O)[C@H](Cc2c[nH]c3ccccc23)NC(=O)[C@H](CCCCN)NC(=O)[C@H](CCC(N)=O)NC(=O)[C@@H](NC(=O)[C@@H](N)Cc2ccc(O)cc2)CSSC[C@@H]2NC(=O)[C@@H]3CSSC[C@@H](C(=O)N[C@@H](CCCNC(=N)N)C(=O)N[C@@H](CCCCN)C(=O)N[C@H](C(=O)N[C@@H](Cc4cn(CCCOCCOCCOCCOCCOCCOCCOCCOCCOCCOCCN)nn4)C(N)=O)[C@@H](C)CC)NC(=O)[C@H](Cc4c[nH]c5ccccc45)NC(=O)[C@H](CC(C)C)NC(=O)[C@H](CCCCN)NC(=O)[C@H](CSSC[C@H](NC(=O)[C@H]([C@@H](C)O)NC(=O)[C@H](Cc4c[nH]c5ccccc45)NC1=O)C(=O)N[C@@H](CC(=O)O)C(=O)N[C@@H](CO)C(=O)N[C@@H](CCCCN)C(=O)N[C@@H](CCCNC(=N)N)C(=O)N[C@@H](C)C(=O)N3)NC(=O)[C@H](CCCNC(=N)N)NC(=O)[C@H](CC(C)C)NC(=O)CNC(=O)[C@H](CCC(=O)O)NC2=O [compound 270]											0.75	> 7	0.4	3.9	2	0.022
